The values that follow come from PMC8373216, “Development and Preclinical Evaluation of New Inhaled Lipoglycopeptides for the Treatment of Persistent Pulmonary Methicillin-Resistant Staphylococcus aureus Infections” (Antimicrobial Agents and Chemotherapy, 2021).

Series [1] deals with MRSA ATCC BAA 1556 (USA300). The series is described as follows: In-house broth microdilution MIC screening. To be noted: for MIC: Staphylococcus aureus, read-out: MIC Value, MRSA ATCC BAA 1556. Format: cell-based, Staphylococcus aureus.
The test system of another series is MSSA ATCC 29213. The series is described as follows: In-house broth microdilution MIC screening. It is filed as cell-based. To be noted: Staphylococcus aureus, read-out: MIC Value, MSSA ATCC 29213.
Series [2] is described as follows: Single-dose nebulized nose-only inhalation PK in healthy rats. Format: in vivo, rat. To be noted: male, Sprague Dawley, rat, in vivo. As for the experimental part:
Rats were acclimated in the study facility for approximately 1 week prior to study start. Ten or eleven rats per cohort were loaded into the chamber at the time of dosing. […] An additional airflow set to 6 liters/min was admixed with the nebulizer output to further direct the test articles to the animals. […] The remaining port on the chamber was fit with an aerosol sampling filter for dose determination over a 5 min sampling period. The average dose delivered to the nose of each animal was calculated using an algorithm that was previously described ([49]). […] Animals were euthanized for collection of whole lungs and plasma at time points ranging from immediate postdose (IPD; approximately 30 min after dosing for nebulization) to 168 h postdose (7 days). Drugs were extracted from tissues using customized protein precipitation methods with an appropriate internal standard for each compound and transferred for analysis by LC-MS/MS (Sciex API4500 or API6500+ mass spectrometer [Sciex, Framingham, MA]). GraphPad Prism (La Jolla, CA) was used for statistical analyses and data plotting. […] The data were applied to a noncompartmental analysis after extravascular dosing input and fit to a linear up/log down model. Statistical analysis of in vitro intracellular and biofilm activity was based on a two-way ANOVA with a Bonferroni post test. In vivo statistical analysis was based on the Kolmogorov-Smirnov test.

[3] abbreviates: MRSA and MSSA isolates of Table 1.

≈ marks a conversion by molar mass, not a printed value. Like-named read-outs stand apart in the source and are kept apart here.

Regarding `CCCCCCCCCC(=O)OCCNC1(C)CC(OC2C(Oc3c4cc5cc3Oc3ccc(cc3Cl)C(O)C3NC(=O)C(NC(=O)C5NC(=O)C(CC(N)=O)NC(=O)C(NC(=O)C(CC(C)C)NC)C(O)c5ccc(c(Cl)c5)O4)c4ccc(O)c(c4)-c4c(O)cc(O)cc4C(C(=O)O)NC3=O)OC(CO)C(O)C2O)OC(C)C1O` (stereo not drawn) [RV54], the MIC in series [1] (broth microdilution) was found to be 0.167 mg/L (≈ 0.101 µM); in the series with MSSA ATCC 29213 (broth microdilution), 0.146 mg/L (≈ 0.0886 µM).
The corresponding values for `CCCCCCCCCCOC(=O)CNC1(C)CC(OC2C(Oc3c4cc5cc3Oc3ccc(cc3Cl)C(O)C3NC(=O)C(NC(=O)C5NC(=O)C(CC(N)=O)NC(=O)C(NC(=O)C(CC(C)C)NC)C(O)c5ccc(c(Cl)c5)O4)c4ccc(O)c(c4)-c4c(O)cc(O)cc4C(C(=O)O)NC3=O)OC(CO)C(O)C2O)OC(C)C1O` (stereo not drawn) [RV55] are 0.25 mg/L (≈ 0.152 µM) and 0.25 mg/L (≈ 0.152 µM).
As to `CCCCCCCCCC(=O)NCCNC1(C)CC(OC2C(Oc3c4cc5cc3Oc3ccc(cc3Cl)C(O)C3NC(=O)C(NC(=O)C5NC(=O)C(CC(N)=O)NC(=O)C(NC(=O)C(CC(C)C)NC)C(O)c5ccc(c(Cl)c5)O4)c4ccc(O)c(c4)-c4c(O)cc(O)cc4C(C(=O)O)NC3=O)OC(CO)C(O)C2O)OC(C)C1O` (stereo not drawn) [RV56], the MIC (in series [1] (broth microdilution); in the series on MSSA ATCC 29213 (broth microdilution)) was 0.063 mg/L (≈ 0.0383 µM) each time.
For `CCCCCCCCCCCC(=O)OCCNC1(C)CC(OC2C(Oc3c4cc5cc3Oc3ccc(cc3Cl)C(O)C3NC(=O)C(NC(=O)C5NC(=O)C(CC(N)=O)NC(=O)C(NC(=O)C(CC(C)C)NC)C(O)c5ccc(c(Cl)c5)O4)c4ccc(O)c(c4)-c4c(O)cc(O)cc4C(C(=O)O)NC3=O)OC(CO)C(O)C2O)OC(C)C1O` (stereo not drawn) [RV65], the MIC in series [1] (broth microdilution) amounted to 0.094 mg/L (≈ 0.0561 µM); in the series with MSSA ATCC 29213 (broth microdilution), 0.063 mg/L (≈ 0.0376 µM).
As for `CNC(CC(C)C)C(=O)NC1C(=O)NC(CC(N)=O)C(=O)NC2C(=O)NC3C(=O)NC(C(=O)NC(C(=O)O)c4cc(O)cc(O)c4-c4cc3ccc4O)C(O)c3ccc(c(Cl)c3)Oc3cc2cc(c3OC2OC(CO)C(O)C(O)C2OC2CC(C)(NCCO)C(O)C(C)O2)Oc2ccc(cc2Cl)C1O` (stereo not drawn) [RV80], the MIC in series [1] (broth microdilution) stood at 2 mg/L (≈ 1.34 µM); in the series with MSSA ATCC 29213 (broth microdilution), 1.5 mg/L (≈ 1 µM). The “Lung retention of primary hydrolysis by-product” value in series [2] is on record as “sustained in the lung throughout the course of the 120 h experiments”.
`CNC(CC(C)C)C(=O)NC1C(=O)NC(CC(N)=O)C(=O)NC2C(=O)NC3C(=O)NC(C(=O)NC(C(=O)O)c4cc(O)cc(O)c4-c4cc3ccc4O)C(O)c3ccc(c(Cl)c3)Oc3cc2cc(c3OC2OC(CO)C(O)C(O)C2OC2CC(C)(NCCN)C(O)C(C)O2)Oc2ccc(cc2Cl)C1O` (stereo not drawn) [RV82]: the MIC (in series [1] (broth microdilution); in the series with MSSA ATCC 29213 (broth microdilution)) was 2 mg/L (≈ 1.34 µM) throughout. In addition, the “Lung retention of primary hydrolysis by-product” value in series [2] is reported as “sustained in the lung throughout the course of the 120 h experiments”.
With `CCCCCCCCCCCCCCCC(=O)OCCNC1(C)CC(OC2C(Oc3c4cc5cc3Oc3ccc(cc3Cl)C(O)C3NC(=O)C(NC(=O)C5NC(=O)C(CC(N)=O)NC(=O)C(NC(=O)C(CC(C)C)NC)C(O)c5ccc(c(Cl)c5)O4)c4ccc(O)c(c4)-c4c(O)cc(O)cc4C(C(=O)O)NC3=O)OC(CO)C(O)C2O)OC(C)C1O` (stereo not drawn) [RV89], the MIC in series [1] (broth microdilution) turned out to be 1 mg/L (≈ 0.577 µM); in the series on MSSA ATCC 29213 (broth microdilution) it was 0.5 mg/L (≈ 0.289 µM).
`CCCCCCCC(=O)OCCNC1(C)CC(OC2C(Oc3c4cc5cc3Oc3ccc(cc3Cl)C(O)C3NC(=O)C(NC(=O)C5NC(=O)C(CC(N)=O)NC(=O)C(NC(=O)C(CC(C)C)NC)C(O)c5ccc(c(Cl)c5)O4)c4ccc(O)c(c4)-c4c(O)cc(O)cc4C(C(=O)O)NC3=O)OC(CO)C(O)C2O)OC(C)C1O` (stereo not drawn) [RV90]: the MIC (in series [1]; in the series with MSSA ATCC 29213) was 0.25 mg/L (≈ 0.154 µM) each time.
Turning to `CCCCCCCCCCCCCCCC(=O)NCCNC1(C)CC(OC2C(Oc3c4cc5cc3Oc3ccc(cc3Cl)C(O)C3NC(=O)C(NC(=O)C5NC(=O)C(CC(N)=O)NC(=O)C(NC(=O)C(CC(C)C)NC)C(O)c5ccc(c(Cl)c5)O4)c4ccc(O)c(c4)-c4c(O)cc(O)cc4C(C(=O)O)NC3=O)OC(CO)C(O)C2O)OC(C)C1O` (stereo not drawn) [RV91], the minimum inhibitory concentration (MIC) in series [1] (broth microdilution) was found to be 0.25 mg/L (≈ 0.144 µM); in the series on MSSA ATCC 29213 (broth microdilution), 0.188 mg/L (≈ 0.109 µM).
The corresponding values for `CCCCCCCCCCCCCC(=O)NCCNC1(C)CC(OC2C(Oc3c4cc5cc3Oc3ccc(cc3Cl)C(O)C3NC(=O)C(NC(=O)C5NC(=O)C(CC(N)=O)NC(=O)C(NC(=O)C(CC(C)C)NC)C(O)c5ccc(c(Cl)c5)O4)c4ccc(O)c(c4)-c4c(O)cc(O)cc4C(C(=O)O)NC3=O)OC(CO)C(O)C2O)OC(C)C1O` (stereo not drawn) [RV92] are 0.031 mg/L (≈ 0.0182 µM) and 0.023 mg/L (≈ 0.0135 µM).
The like results for `CCCCCCCC(=O)NCCNC1(C)CC(OC2C(Oc3c4cc5cc3Oc3ccc(cc3Cl)C(O)C3NC(=O)C(NC(=O)C5NC(=O)C(CC(N)=O)NC(=O)C(NC(=O)C(CC(C)C)NC)C(O)c5ccc(c(Cl)c5)O4)c4ccc(O)c(c4)-c4c(O)cc(O)cc4C(C(=O)O)NC3=O)OC(CO)C(O)C2O)OC(C)C1O` (stereo not drawn) [RV93] were, in that order, 0.125 mg/L (≈ 0.0772 µM) and 0.125 mg/L (≈ 0.0772 µM).
Consider `CCCCCCCCCCCCNC(=O)CNC1(C)CC(OC2C(Oc3c4cc5cc3Oc3ccc(cc3Cl)C(O)C3NC(=O)C(NC(=O)C5NC(=O)C(CC(N)=O)NC(=O)C(NC(=O)C(CC(C)C)NC)C(O)c5ccc(c(Cl)c5)O4)c4ccc(O)c(c4)-c4c(O)cc(O)cc4C(C(=O)O)NC3=O)OC(CO)C(O)C2O)OC(C)C1O` (stereo not drawn) [RV95], for which, in series [1] (setting [3]), the “MIC potency, fold less potent than RV40” value was about 2 fold; the “MIC potency, fold more potent than telavancin” value is given as about 2 fold; the “MIC potency, fold more potent than vancomycin” value is listed as “approximately 30 fold”. Further, in series [1] (broth microdilution), the MIC is 0.031 mg/L (≈ 0.0185 µM). Further, the MIC in the series on MSSA ATCC 29213 (broth microdilution) turned out to be 0.031 mg/L (≈ 0.0185 µM).
For the compound `CNC(CC(C)C)C(=O)NC1C(=O)NC(CC(N)=O)C(=O)NC2C(=O)NC3C(=O)NC(C(=O)NC(C(=O)O)c4cc(O)cc(O)c4-c4cc3ccc4O)C(O)c3ccc(c(Cl)c3)Oc3cc2cc(c3OC2OC(CO)C(O)C(O)C2OC2CC(C)(NCC(=O)O)C(O)C(C)O2)Oc2ccc(cc2Cl)C1O` (stereo not drawn) [RV101], the MIC (in series [1] (broth microdilution); in the series on MSSA ATCC 29213 (broth microdilution)) was over 128 mg/L throughout.
As to `CCCCCCCCNC(=O)CNC1(C)CC(OC2C(Oc3c4cc5cc3Oc3ccc(cc3Cl)C(O)C3NC(=O)C(NC(=O)C5NC(=O)C(CC(N)=O)NC(=O)C(NC(=O)C(CC(C)C)NC)C(O)c5ccc(c(Cl)c5)O4)c4ccc(O)c(c4)-c4c(O)cc(O)cc4C(C(=O)O)NC3=O)OC(CO)C(O)C2O)OC(C)C1O` (stereo not drawn) [RV121], the MIC (in series [1] (broth microdilution); with MSSA ATCC 29213 (broth microdilution)) was 0.25 mg/L (≈ 0.154 µM) throughout.
Take `CCCCCCCCOC(=O)CNC1(C)CC(OC2C(Oc3c4cc5cc3Oc3ccc(cc3Cl)C(O)C3NC(=O)C(NC(=O)C5NC(=O)C(CC(N)=O)NC(=O)C(NC(=O)C(CC(C)C)NC)C(O)c5ccc(c(Cl)c5)O4)c4ccc(O)c(c4)-c4c(O)cc(O)cc4C(C(=O)O)NC3=O)OC(CO)C(O)C2O)OC(C)C1O` (stereo not drawn) [RV124]: the MIC in series [1] (broth microdilution) was found to be 0.75 mg/L (≈ 0.463 µM); with MSSA ATCC 29213 (broth microdilution) it was 0.5 mg/L (≈ 0.309 µM).
Regarding `CCCCCCCCCCCCOC(=O)CNC1(C)CC(OC2C(Oc3c4cc5cc3Oc3ccc(cc3Cl)C(O)C3NC(=O)C(NC(=O)C5NC(=O)C(CC(N)=O)NC(=O)C(NC(=O)C(CC(C)C)NC)C(O)c5ccc(c(Cl)c5)O4)c4ccc(O)c(c4)-c4c(O)cc(O)cc4C(C(=O)O)NC3=O)OC(CO)C(O)C2O)OC(C)C1O` (stereo not drawn) [RV126], the MIC (in series [1] (broth microdilution); in the series with MSSA ATCC 29213 (broth microdilution)) was 2 mg/L (≈ 1.19 µM) each time.
For the compound `CCCCCCCCCCCCCCOC(=O)CNC1(C)CC(OC2C(Oc3c4cc5cc3Oc3ccc(cc3Cl)C(O)C3NC(=O)C(NC(=O)C5NC(=O)C(CC(N)=O)NC(=O)C(NC(=O)C(CC(C)C)NC)C(O)c5ccc(c(Cl)c5)O4)c4ccc(O)c(c4)-c4c(O)cc(O)cc4C(C(=O)O)NC3=O)OC(CO)C(O)C2O)OC(C)C1O` (stereo not drawn) [RV127], the MIC (in series [1] (broth microdilution); in the series with MSSA ATCC 29213 (broth microdilution)) was 4 mg/L (≈ 2.35 µM) in each case.
With `CCCCCCCCCCCCCCCCOC(=O)CNC1(C)CC(OC2C(Oc3c4cc5cc3Oc3ccc(cc3Cl)C(O)C3NC(=O)C(NC(=O)C5NC(=O)C(CC(N)=O)NC(=O)C(NC(=O)C(CC(C)C)NC)C(O)c5ccc(c(Cl)c5)O4)c4ccc(O)c(c4)-c4c(O)cc(O)cc4C(C(=O)O)NC3=O)OC(CO)C(O)C2O)OC(C)C1O` (stereo not drawn) [RV128], the MIC (in series [1] (broth microdilution); with MSSA ATCC 29213 (broth microdilution)) was 1 mg/L (≈ 0.577 µM) in each case.
Consider `CCCCCCCCCCCCCCNC(=O)CNC1(C)CC(OC2C(Oc3c4cc5cc3Oc3ccc(cc3Cl)C(O)C3NC(=O)C(NC(=O)C5NC(=O)C(CC(N)=O)NC(=O)C(NC(=O)C(CC(C)C)NC)C(O)c5ccc(c(Cl)c5)O4)c4ccc(O)c(c4)-c4c(O)cc(O)cc4C(C(=O)O)NC3=O)OC(CO)C(O)C2O)OC(C)C1O` (stereo not drawn) [RV130], for which the MIC was determined as 0.25 mg/L (≈ 0.147 µM) in series [1] (broth microdilution) and 0.125 mg/L (≈ 0.0734 µM) in the series on MSSA ATCC 29213 (broth microdilution).
Regarding `CCCCCCCCCCCCCCCCNC(=O)CNC1(C)CC(OC2C(Oc3c4cc5cc3Oc3ccc(cc3Cl)C(O)C3NC(=O)C(NC(=O)C5NC(=O)C(CC(N)=O)NC(=O)C(NC(=O)C(CC(C)C)NC)C(O)c5ccc(c(Cl)c5)O4)c4ccc(O)c(c4)-c4c(O)cc(O)cc4C(C(=O)O)NC3=O)OC(CO)C(O)C2O)OC(C)C1O` (stereo not drawn) [RV131], the MIC (in series [1] (broth microdilution); in the series with MSSA ATCC 29213 (broth microdilution)) was 4 mg/L (≈ 2.31 µM) throughout.
